Measurements reported in ChEMBL document CHEMBL5608188, “Discovery of N'-benzyl-3-chloro-N-((1S,3R,4R)-3-((dimethylamino)methyl)-4-hydroxy-4-(3-methoxyphenyl)cyclohexyl)benzenesulfonamide as a novel selective KOR ligand” (Eur J Med Chem, 2024).
Active and inactive are the calls of the source. The rule behind the calls is not given here.

What was measured:
[1] = molecular target: T1, Kappa-type opioid receptor (Homo sapiens, UniProt P41145); assay: Displacement of [3H] U69593 from human kappa-opioid receptor extracted from CHO cell membrane at 0.1 uM by liquid scintillation counting analysis relative to control; assay type: cell membranes
T1 sequence (P41145 whole entry): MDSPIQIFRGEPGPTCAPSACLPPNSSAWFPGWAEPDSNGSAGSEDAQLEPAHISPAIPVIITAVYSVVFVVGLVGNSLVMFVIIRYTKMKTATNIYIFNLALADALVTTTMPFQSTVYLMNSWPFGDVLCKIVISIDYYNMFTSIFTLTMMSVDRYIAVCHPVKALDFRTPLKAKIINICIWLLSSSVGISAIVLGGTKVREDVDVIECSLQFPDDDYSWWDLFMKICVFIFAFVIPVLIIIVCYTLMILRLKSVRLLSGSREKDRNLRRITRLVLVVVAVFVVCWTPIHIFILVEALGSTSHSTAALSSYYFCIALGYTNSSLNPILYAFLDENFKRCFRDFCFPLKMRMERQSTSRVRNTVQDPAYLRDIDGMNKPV

[2] = molecular target: Mu-type opioid receptor (Rattus norvegicus) (UniProt P33535); assay: Displacement of [3H] DAMGO from rat mu-opioid receptor extracted from CHO cell membrane at 0.1 uM by liquid scintillation counting analysis relative to control; assay type: cell membranes
Mu-type opioid receptor (Rattus norvegicus), sequence (P33535 whole entry): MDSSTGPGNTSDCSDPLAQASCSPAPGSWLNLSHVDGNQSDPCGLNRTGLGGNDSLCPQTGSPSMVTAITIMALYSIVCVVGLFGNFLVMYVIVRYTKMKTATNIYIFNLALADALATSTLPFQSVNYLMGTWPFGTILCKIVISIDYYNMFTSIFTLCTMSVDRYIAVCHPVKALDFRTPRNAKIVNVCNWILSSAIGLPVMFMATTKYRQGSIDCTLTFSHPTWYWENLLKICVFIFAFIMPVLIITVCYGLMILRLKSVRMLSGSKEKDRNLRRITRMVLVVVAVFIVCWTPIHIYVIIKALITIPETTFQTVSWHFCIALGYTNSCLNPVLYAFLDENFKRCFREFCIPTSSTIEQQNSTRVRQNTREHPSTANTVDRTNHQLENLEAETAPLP

[3] = molecular target: Delta-type opioid receptor (Rattus norvegicus) (UniProt P33533); assay: Displacement of [3H] DPDPE from rat delta-opioid receptor extracted from CHO cell membrane at 0.1 uM by liquid scintillation counting analysis relative to control; assay type: cell membranes
Delta-type opioid receptor (Rattus norvegicus), sequence (P33533 whole entry): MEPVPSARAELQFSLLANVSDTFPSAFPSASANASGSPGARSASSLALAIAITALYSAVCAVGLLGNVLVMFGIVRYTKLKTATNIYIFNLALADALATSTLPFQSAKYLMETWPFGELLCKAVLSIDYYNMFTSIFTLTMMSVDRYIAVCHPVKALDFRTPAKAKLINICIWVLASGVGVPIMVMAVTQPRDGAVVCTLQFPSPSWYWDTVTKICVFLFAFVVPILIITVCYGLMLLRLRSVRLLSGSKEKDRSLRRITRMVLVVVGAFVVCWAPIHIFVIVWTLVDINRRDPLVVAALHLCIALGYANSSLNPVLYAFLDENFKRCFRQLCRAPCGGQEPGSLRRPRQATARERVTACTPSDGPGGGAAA

[4] = molecular target: T1, Kappa-type opioid receptor; assay: Displacement of [3H] U69593 from human kappa-opioid receptor extracted from CHO cell membrane assessed as inhibition constant by liquid scintillation counting analysis; assay type: cell membranes
[5] = molecular target: Mu-type opioid receptor (Rattus norvegicus) (UniProt P33535); assay: (§1) Displacement of [3H] DAMGO from rat mu-opioid receptor extracted from CHO cell membrane assessed as inhibition constant by liquid scintillation counting analysis; assay type: cell membranes
[6] = Metabolic stability in mouse liver microsomes assessed as intrinsic clearance at 1 uM measured upto 60 mins in presence of NADPH by LC-MS/MS analysis; assay type: ADME, Microsome; conditions: read-out: CLH
[7] = Metabolic stability in mouse liver assessed as intrinsic clearance at 1 uM measured upto 60 mins in presence of NADPH by LC-MS/MS analysis; assay type: ADME, tissue-based; conditions: read-out: CLH
[8] = Toxicity in male Kunming mouse assessed as effect on sedation at 1.3 to 10 mg/kg, IP administered for 30 mins and measured after 1 hrs by open field test; assay type: organism-based; conditions: in vivo, 1.5 h, dose 1.3-10 mg/kg, time 90 min
[9] = Drug uptake in mouse plasma; assay type: ADME, cell-free
[10] = Half-life in ICR mouse at 2 mg/kg, iv measured after 24 hrs; assay type: ADME, organism-based; conditions: in vivo
[11] = Cmax in ICR mouse at 5 mg/kg, po measured after 24 hrs; assay type: ADME, organism-based; conditions: in vivo
Mus musculus [12] = assay: Antinociceptive activity in acetic acid induced female Kunming mouse model assessed as reduction in number of torsions preadministered with nor-BNI for 24 hrs followed by compound administration for 30 mins and measured after 15 mins of acetic acid administration by abdominal contraction test; assay type: functional, organism-based; conditions: time 45.0 min
Mus musculus [13] = assay: Antinociceptive activity in acetic acid induced female Kunming mouse model assessed as reduction in number of torsions preadministered for 30 mins followed by acetic acid administration and measured after 15 mins by abdominal contraction test; assay type: functional; conditions: 0.75 h, time 45 min
[14] = Tmax in ICR mouse at 2 mg/kg, iv measured after 24 hrs; assay type: ADME, organism-based; conditions: in vivo
[15] = AUC (0 to t) in ICR mouse at 2 mg/kg, iv measured after 24 hrs; assay type: ADME, organism-based; conditions: in vivo
[16] = Half-life in ICR mouse at 5 mg/kg, po measured after 24 hrs; assay type: ADME, organism-based; conditions: in vivo
[17] = Metabolic stability in mouse liver microsomes assessed as half life at 1 uM measured upto 60 mins in presence of NADPH by LC-MS/MS analysis; assay type: ADME, Microsome
[18] = AUC (0 to t) in ICR mouse at 5 mg/kg, po measured after 24 hrs; assay type: ADME, organism-based; conditions: in vivo
[19] = Cmax in ICR mouse at 2 mg/kg, iv measured after 24 hrs; assay type: ADME, organism-based; conditions: in vivo
[20] = Metabolic stability in mouse liver microsomes assessed as parent compound remaining at 1 uM measured after 60 min in presence of NADPH by LC-MS/MS analysis; assay type: ADME, Microsome; conditions: read-out: Stability
[21] = Metabolic stability in mouse liver microsomes assessed as parent compound remaining at 1 uM measured after 30 min in presence of NADPH by LC-MS/MS analysis; assay type: ADME, Microsome; conditions: read-out: Stability
[22] = Clearance in ICR mouse at 2 mg/kg, iv measured after 24 hrs; assay type: ADME, organism-based; conditions: in vivo
[23] = AUC (0 to infinity) in ICR mouse at 2 mg/kg, iv measured after 24 hrs; assay type: ADME, organism-based; conditions: in vivo
[24] = Metabolic stability in mouse liver microsomes assessed as parent compound remaining at 1 uM measured after 15 min in presence of NADPH by LC-MS/MS analysis; assay type: ADME, Microsome; conditions: read-out: Stability
[25] = Oral bioavailability in ICR mouse at 5 mg/kg measured after 24 hrs; assay type: ADME, organism-based; conditions: in vivo
[26] = molecular target: Delta-type opioid receptor (Rattus norvegicus) (UniProt P33533); assay: (§2) Displacement of [3H] DPDPE from rat delta-opioid receptor extracted from CHO cell membrane assessed as inhibition constant by liquid scintillation counting analysis; assay type: cell membranes
[27] = AUC (0 to infinity) in ICR mouse at 5 mg/kg, po measured after 24 hrs; assay type: ADME, organism-based; conditions: in vivo
[28] = Tmax in ICR mouse at 5 mg/kg, po measured after 24 hrs; assay type: ADME, organism-based; conditions: in vivo
[29] = Metabolic stability in mouse liver microsomes assessed as parent compound remaining at 1 uM measured after 5 min in presence of NADPH by LC-MS/MS analysis; assay type: ADME, Microsome; conditions: read-out: Stability
[30] = molecular target: T1, Kappa-type opioid receptor; assay: Binding affinity to human kappa-opioid receptor extracted from CHO cell membrane assessed as inhibition constant incubated for 60 mins in presence of [3H]U69593 by radioligand binding assay; assay type: cell membranes
Mu-type opioid receptor = Mu-type opioid receptor (Rattus norvegicus, UniProt P33535); assay: as §1; assay type: cell membranes
Mu-type opioid receptor, sequence (P33535 whole entry): as the sequence (P33535 whole entry) above

[31] = molecular target: Delta-type opioid receptor (Rattus norvegicus, UniProt P33533); assay: as §2; assay type: cell membranes
Delta-type opioid receptor, sequence (P33533 whole entry): as the sequence (P33533 whole entry) above

For `COc1cccc(C2(OC(=O)c3ccccc3)CCC(N(C)S(=O)(=O)Cc3cccc(Cl)c3)CC2CN(C)C)c1` (centres undefined), the inhibition [1] was 16.6%, the inhibition [2] was 0% and the inhibition [3] was 0%.
`COc1cccc(C2(O)CCC(N(C)S(=O)(=O)c3cccc(Cl)c3)CC2CN(C)C)c1` (centres undefined) gave an inhibition [1] of 22.7%, an inhibition [2] of 16.5% and an inhibition [3] of 14.8%.
In the case of `COc1cccc(C2(O)CCC(NS(=O)(=O)c3ccccc3)CC2CN(C)C)c1` (centres undefined), the inhibition [1] is reported as 7.2%, the inhibition [2] is reported as 11.8% and the inhibition [3] is reported as 7.51%.
With `COc1cccc([C@]2(O)CC[C@@H](N(Cc3ccccc3)S(=O)(=O)c3cccc(Cl)c3)C[C@H]2CN(C)C)c1` the Activity [4] was “inactive” and the Activity [5] was “inactive”.
Work on `COc1cccc(C2(O)CCC(N(C)S(=O)(=O)c3ccccc3)CC2CN(C)C)c1` (centres undefined) yielded an inhibition [1] of 15.3%, an inhibition [2] of 38.6% and an inhibition [3] of 12.9%.
`COc1cccc(C2(OC(=O)c3ccccc3)CCC(N(C)S(=O)(=O)Cc3ccccc3)CC2CN(C)C)c1` (centres undefined) showed an inhibition [1] of 28.8%, an inhibition [2] of 3.3% and an inhibition [3] of 0%.
Work on `COc1cccc(C2(O)CCC(NS(=O)(=O)Cc3ccccc3)CC2CN(C)C)c1` (centres undefined) yielded an inhibition [1] of 11.2%, an inhibition [2] of 41.1% and an inhibition [3] of 1%.
Work on `COc1cccc(C2(O)CCC(N(Cc3ccccc3)S(=O)(=O)c3cccs3)CC2CN(C)C)c1` (centres undefined) yielded an inhibition [1] of 14.9%, an inhibition [2] of 9.5% and an inhibition [3] of 0%.
In the case of `COc1cccc([C@@]2(O)CC[C@H](N(Cc3ccccc3)S(=O)(=O)c3cccc(Cl)c3)C[C@@H]2CN(C)C)c1.Cl`, the microsomal CLint at 1 µM [6] is reported as 351 µL/min/mg, the Ki [4] is reported as 1.9 nM and the CLint scaled at 1 µM [7] is reported as 1390 mL/min/kg. For the same compound, the Activity [8] was “Non-Toxic”, the Drug uptake [9] was “Active” and the half-life [10] was 71.4 min. For the same compound, the Cmax [11] was 3.87 ng/mL, the Activity (Mus musculus [12]) was “inactive” and the ED50 (Mus musculus [13]) was 1.3 mg/kg. For the same compound, the Tmax [14] was 4.98 min, the inhibition [2] was 25.8% and the AUC(0-t) at 24 h [15] was 131 ng·h/mL. For the same compound, the half-life [16] was 16.2 min, the half-life at 1 µM [17] was 3.95 min and the AUC(0-t) at 24 h [18] was 1.34 ng·h/mL. For the same compound, the Cmax [19] was 221 ng/mL, the remaining at 1 h, 1 µM [20] was 4.59% and the remaining at 0.5 h, 1 µM [21] was 5.89%. For the same compound, the clearance [22] was 246 mL/min/kg, the AUC(0-inf) [23] was 136 ng·h/mL and the remaining at 0.25 h, 1 µM [24] was 6.7%. For the same compound, the bioavailability [25] was 0.53%, the Activity [26] was “inactive” and the AUC(0-inf) [27] was 1.64 ng·h/mL. For the same compound, the Tmax [28] was 4.98 min and the remaining at 5 min, 1 µM [29] was 29%.
Compound `CN(C)C[C@@H]1CN(CCc2cccc(C(F)(F)F)c2)CC[C@@]1(O)c1cccc(O)c1` has a Ki [30] of 25.8 nM.
With `COc1cccc(C2(O)CCCCC2CN(C)C)c1` (centres undefined) the inhibition [1] was 0%, the inhibition [2] was 6% and the inhibition [3] was 0%.
`COc1cccc(C2(O)CCC(NS(=O)(=O)c3cccc(Cl)c3)CC2CN(C)C)c1` (centres undefined) gave an inhibition [1] of 15%, an inhibition [2] of 22.8% and an inhibition [3] of 0%.
Compound `COc1cccc(C2(OC(=O)c3ccccc3)CCC(NS(=O)(=O)c3ccccc3)CC2CN(C)C)c1` (centres undefined) has an inhibition [1] of 12.9%, an inhibition [2] of 18.1% and an inhibition [3] of 0%.
For `O=C(O)Cc1ccccc1Nc1c(Cl)cccc1Cl` [DICLOFENAC], the microsomal CLint at 1 µM [6] was 29.4 µL/min/mg, the CLint scaled at 1 µM [7] was 116 mL/min/kg and the half-life at 1 µM [17] was 47.1 min.
Compound `COc1cccc(C2(OC(=O)c3ccccc3)CCC(NS(=O)(=O)c3cccc(Cl)c3)CC2CN(C)C)c1` (centres undefined) has an inhibition [1] of 30.5%, an inhibition [2] of 14.4% and an inhibition [3] of 0%.
Work on `COc1cccc(C2(O)CCC(NS(=O)(=O)Cc3cccc(Cl)c3)CC2CN(C)C)c1` (centres undefined) yielded an inhibition [1] of 6.9%, an inhibition [2] of 35.8% and an inhibition [3] of 0%.
For `COc1cccc(C2(O)CCC(N(Cc3ccccc3)S(=O)(=O)c3ccccc3)CC2CN(C)C)c1` (centres undefined), the inhibition [1] was 39.7%, the inhibition [2] was 14.8% and the inhibition [3] was 0%.
For `COc1cccc(C2(O)CCC(N(Cc3ccccc3)S(=O)(=O)c3cccc(Cl)c3)CC2CN(C)C)c1` (centres undefined), the inhibition [2] was 6.7% and the inhibition [3] was 0%.
In the case of `CN(C)CC1CC(N(Cc2ccccc2)S(=O)(=O)c2cccc(Cl)c2)CCC1(O)c1cccc(O)c1.Cl` (centres undefined), the Ki [4] is reported as 3.1 nM, the Drug uptake [9] is reported as “Active” and the Ki (Mu-type opioid receptor) is reported as 18.8 nM. The Ki [31] was 201 nM and the inhibition [3] was 20.7%.
`COc1cccc(C2(O)CCC(NS(=O)(=O)c3cccs3)CC2CN(C)C)c1` (centres undefined) gave an inhibition [1] of 15.2%, an inhibition [2] of 1.2% and an inhibition [3] of 0%.
Work on `COc1cccc(C2(O)CCC(N(C)S(=O)(=O)c3cccs3)CC2CN(C)C)c1` (centres undefined) yielded an inhibition [1] of 22%, an inhibition [2] of 0% and an inhibition [3] of 30.1%.
